# Measurements: ChEMBL document CHEMBL4229407, “Optimization and in vivo evaluation of pyrazolopyridines as a potent and selective PI3Kδ inhibitor” (Bioorg Med Chem, 2018)
# Key:
# [1] = target: PI3-kinase p110-delta/p85-alpha (Homo sapiens, UniProt O00329); experiment: Inhibition of recombinant human full length N-terminal His6-tagged PI3K p110delta/p85alpha expressed in baculovirus infected Sf21 cells using PIP2 as substrate after 35 to 40 mins by HTRF assay
# Homo sapiens [2] = species: Homo sapiens; experiment: Selectivity ratio of IC50 for recombinant human full length N-terminal His6-tagged PI3K p110alpha/p85alpha expressed in baculovirus infected Sf21 cells to IC50 for recombinant human full length N-terminal His6-tagged PI3K p110delta/p85alpha expressed in baculovirus infected Sf21 cells
# [3] = Intrinsic clearance in CD-1 mouse liver microsomes at 0.2 uM up to 45 mins in presence of NADPH by LC-MS/MS analysis; type: ADME, microsome; settings: read-out: CLH
# [4] = Aqueous solubility in pH 6.8 solution at 130 uM after 20 hrs by liquid chromatography method; type: physicochemical; settings: aqueous pH 6.8 solution
# Homo sapiens [5] = species: Homo sapiens; experiment: Selectivity ratio of IC50 for recombinant human full length N-terminal His6-tagged PI3K p110beta/p85alpha expressed in baculovirus infected Sf21 cells to IC50 for recombinant human full length N-terminal His6-tagged PI3K p110delta/p85alpha expressed in baculovirus infected Sf21 cells
# Homo sapiens [6] = species: Homo sapiens; experiment: Selectivity ratio of IC50 for recombinant human full length N-terminal His6-tagged PI3K p120gamma expressed in baculovirus infected Sf21 cells to IC50 for recombinant human full length N-terminal His6-tagged PI3K p110delta/p85alpha expressed in baculovirus infected Sf21 cells
# [7] = Permeability of the compound at 50 uM after 2 hrs by HPLC based PAMPA; type: ADME; settings: read-out: permeability
# Cytochrome P450 1A2 = target: T1, Cytochrome P450 1A2 (Homo sapiens, UniProt P05177); experiment: Inhibition of CYP1A2 in human liver microsomes at 5 uM using phenacetin as substrate after 20 mins in presence of NADPH by LC-MS/MS analysis; type: ADME
# T1 sequence (P05177 whole entry): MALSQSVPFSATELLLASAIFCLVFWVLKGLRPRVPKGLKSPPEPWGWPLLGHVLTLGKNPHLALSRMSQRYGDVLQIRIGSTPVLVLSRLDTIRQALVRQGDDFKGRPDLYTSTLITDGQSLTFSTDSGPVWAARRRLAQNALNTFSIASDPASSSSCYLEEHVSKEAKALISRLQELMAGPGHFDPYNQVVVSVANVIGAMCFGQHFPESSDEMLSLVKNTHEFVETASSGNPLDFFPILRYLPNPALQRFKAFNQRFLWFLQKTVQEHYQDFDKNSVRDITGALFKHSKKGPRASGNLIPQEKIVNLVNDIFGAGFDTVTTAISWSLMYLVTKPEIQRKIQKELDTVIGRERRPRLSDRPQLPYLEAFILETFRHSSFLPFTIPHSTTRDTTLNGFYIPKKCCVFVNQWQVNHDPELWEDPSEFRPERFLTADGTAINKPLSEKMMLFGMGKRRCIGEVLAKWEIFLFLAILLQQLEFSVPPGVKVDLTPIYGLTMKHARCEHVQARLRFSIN
# Cytochrome P450 2C8 = target: T2, Cytochrome P450 2C8 (Homo sapiens, UniProt P10632); experiment: Inhibition of CYP2C8 in human liver microsomes at 5 uM using amodiaquine as substrate after 20 mins in presence of NADPH by LC-MS/MS analysis; type: ADME
# T2 sequence (P10632 whole entry): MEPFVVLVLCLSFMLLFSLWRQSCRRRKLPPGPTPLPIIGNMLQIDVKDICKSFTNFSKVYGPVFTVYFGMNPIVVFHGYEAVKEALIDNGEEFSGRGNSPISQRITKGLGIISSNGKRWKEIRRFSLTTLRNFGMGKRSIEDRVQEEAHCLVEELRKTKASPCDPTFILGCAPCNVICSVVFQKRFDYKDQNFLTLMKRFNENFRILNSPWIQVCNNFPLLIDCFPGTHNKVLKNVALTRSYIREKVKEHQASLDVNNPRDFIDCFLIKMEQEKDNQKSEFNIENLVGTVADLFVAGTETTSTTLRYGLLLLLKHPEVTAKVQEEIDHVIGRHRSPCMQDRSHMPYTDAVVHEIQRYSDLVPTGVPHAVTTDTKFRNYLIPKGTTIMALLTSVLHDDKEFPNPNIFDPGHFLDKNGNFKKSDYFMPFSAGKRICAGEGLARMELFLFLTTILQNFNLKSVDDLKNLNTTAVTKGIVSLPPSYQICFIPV
# Cytochrome P450 2C9 = Cytochrome P450 2C9 (Homo sapiens, UniProt P11712); experiment: Inhibition of CYP2C9 in human liver microsomes at 5 uM using diclofenac as substrate after 20 mins in presence of NADPH by LC-MS/MS analysis; type: ADME
# Sequence of Cytochrome P450 2C9 (P11712 whole entry): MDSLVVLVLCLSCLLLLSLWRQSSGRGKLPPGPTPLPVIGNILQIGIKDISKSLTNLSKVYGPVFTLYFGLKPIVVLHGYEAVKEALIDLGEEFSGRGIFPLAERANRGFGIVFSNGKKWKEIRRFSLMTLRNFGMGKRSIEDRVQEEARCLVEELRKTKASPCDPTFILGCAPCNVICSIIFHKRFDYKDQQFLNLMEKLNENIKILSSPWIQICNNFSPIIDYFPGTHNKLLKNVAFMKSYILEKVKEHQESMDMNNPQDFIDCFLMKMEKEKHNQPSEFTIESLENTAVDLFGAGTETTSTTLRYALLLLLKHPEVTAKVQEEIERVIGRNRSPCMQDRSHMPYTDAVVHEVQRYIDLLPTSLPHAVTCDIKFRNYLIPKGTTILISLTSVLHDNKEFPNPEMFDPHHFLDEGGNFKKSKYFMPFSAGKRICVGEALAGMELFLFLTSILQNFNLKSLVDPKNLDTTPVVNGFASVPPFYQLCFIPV
# Cytochrome P450 2C19 = Cytochrome P450 2C19 (Homo sapiens, UniProt P33261); experiment: Inhibition of CYP2C19 in human liver microsomes at 5 uM using S-mephenytoin as substrate after 20 mins in presence of NADPH by LC-MS/MS analysis; type: ADME
# Sequence of Cytochrome P450 2C19 (P33261 whole entry): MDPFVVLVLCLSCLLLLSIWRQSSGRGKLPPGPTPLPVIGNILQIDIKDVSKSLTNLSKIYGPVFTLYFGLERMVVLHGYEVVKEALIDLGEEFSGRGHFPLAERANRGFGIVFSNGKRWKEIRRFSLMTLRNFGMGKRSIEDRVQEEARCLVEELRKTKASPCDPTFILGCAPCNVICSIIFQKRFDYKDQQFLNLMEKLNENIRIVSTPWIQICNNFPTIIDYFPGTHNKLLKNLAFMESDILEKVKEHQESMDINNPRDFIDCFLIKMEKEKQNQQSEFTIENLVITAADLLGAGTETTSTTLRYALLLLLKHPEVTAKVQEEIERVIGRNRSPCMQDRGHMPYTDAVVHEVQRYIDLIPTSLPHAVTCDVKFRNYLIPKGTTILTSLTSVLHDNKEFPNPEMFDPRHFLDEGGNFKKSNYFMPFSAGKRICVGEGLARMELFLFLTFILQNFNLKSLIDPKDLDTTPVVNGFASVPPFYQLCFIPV
# Cytochrome P450 2D6 = Cytochrome P450 2D6 (Homo sapiens, UniProt P10635); experiment: Inhibition of CYP2D6 in human liver microsomes at 5 uM using dextromethorphan as substrate after 20 mins in presence of NADPH by LC-MS/MS analysis; type: ADME
# Sequence of Cytochrome P450 2D6 (P10635 whole entry): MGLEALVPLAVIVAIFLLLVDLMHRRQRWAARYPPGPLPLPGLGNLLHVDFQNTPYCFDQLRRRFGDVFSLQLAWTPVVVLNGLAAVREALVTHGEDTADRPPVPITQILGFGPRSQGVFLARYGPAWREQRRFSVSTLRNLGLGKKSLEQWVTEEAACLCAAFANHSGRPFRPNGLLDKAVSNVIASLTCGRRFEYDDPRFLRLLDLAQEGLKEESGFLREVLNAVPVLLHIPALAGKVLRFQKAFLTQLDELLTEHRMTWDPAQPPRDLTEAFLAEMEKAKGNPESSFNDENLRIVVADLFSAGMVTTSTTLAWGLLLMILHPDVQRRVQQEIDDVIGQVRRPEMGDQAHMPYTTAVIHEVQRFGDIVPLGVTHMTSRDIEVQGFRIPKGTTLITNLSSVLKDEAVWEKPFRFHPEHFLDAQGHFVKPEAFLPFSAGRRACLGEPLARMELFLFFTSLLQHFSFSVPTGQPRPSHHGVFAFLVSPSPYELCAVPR
# Cytochrome P450 3A4 = Cytochrome P450 3A4 (Homo sapiens, UniProt P08684); experiment: Inhibition of CYP3A4 in human liver microsomes at 5 uM using midazolam as substrate after 20 mins in presence of NADPH by LC-MS/MS analysis; type: ADME
# Sequence of Cytochrome P450 3A4 (P08684 whole entry): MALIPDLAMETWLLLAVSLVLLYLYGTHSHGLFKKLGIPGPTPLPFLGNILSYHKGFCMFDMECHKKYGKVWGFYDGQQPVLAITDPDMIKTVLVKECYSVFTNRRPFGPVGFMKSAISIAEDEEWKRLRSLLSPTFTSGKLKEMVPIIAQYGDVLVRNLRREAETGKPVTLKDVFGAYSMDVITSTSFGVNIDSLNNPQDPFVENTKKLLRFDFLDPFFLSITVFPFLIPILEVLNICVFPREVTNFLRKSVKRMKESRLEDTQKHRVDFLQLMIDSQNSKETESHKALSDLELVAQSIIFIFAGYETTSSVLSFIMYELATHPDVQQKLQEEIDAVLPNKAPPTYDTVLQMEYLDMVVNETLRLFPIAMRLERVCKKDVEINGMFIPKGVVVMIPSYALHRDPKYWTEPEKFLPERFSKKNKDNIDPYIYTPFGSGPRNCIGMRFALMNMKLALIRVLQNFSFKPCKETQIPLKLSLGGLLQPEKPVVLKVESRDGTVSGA
# [8] = Total clearance in Balb/c mouse at 1 mg/kg, iv or 3 mg/kg, po by LC-MS/MS analysis; type: ADME, organism-based; settings: in vivo
# [9] = Volume of distribution at steady state in Balb/c mouse at 1 mg/kg, iv or 3 mg/kg, po by LC-MS/MS analysis; type: ADME, organism-based; settings: in vivo, read-out: Vdss
# [10] = Half life in Balb/c mouse at 1 mg/kg, iv or 3 mg/kg, po by LC-MS/MS analysis; type: ADME, organism-based; settings: in vivo
# [11] = Cmax in Balb/c mouse at 1 mg/kg, iv or 3 mg/kg, po by LC-MS/MS analysis; type: ADME, organism-based; settings: in vivo
# [12] = Tmax in Balb/c mouse at 1 mg/kg, iv or 3 mg/kg, po by LC-MS/MS analysis; type: ADME, organism-based; settings: in vivo
# [13] = AUC (0 to 24 hrs) in Balb/c mouse at 1 mg/kg, iv or 3 mg/kg, po by LC-MS/MS analysis; type: ADME, organism-based; settings: in vivo
# [14] = Fraction unbound in mouse plasma at 2 uM after 6 hrs by LC-MS/MS based equilibrium dialysis method; type: ADME, cell-free
# [15] = Oral bioavailability in Balb/c mouse at 3 mg/kg by LC-MS/MS analysis; type: ADME, organism-based; settings: in vivo
# Mus musculus [16] = experiment: In vivo inhibition of PI3Kdelta in Balb/c mouse assessed as reduction in trinitrophenylated aminoethylcarboxymethyl-Ficoll-induced antibody production in plasma administered orally twice daily measured on day 4 by ELISA; type: functional, organism-based
# Mus musculus [17] = experiment: In vivo inhibition of PI3Kdelta in Balb/c mouse assessed as reduction in trinitrophenylated aminoethylcarboxymethyl-Ficoll-induced antibody production in plasma at 2 mg/kg, po administered twice daily measured on day 4 by ELISA relative to control; type: functional; settings: 96 h
# Mus musculus [18] = experiment: In vivo inhibition of PI3Kdelta in Balb/c mouse assessed as reduction in trinitrophenylated aminoethylcarboxymethyl-Ficoll-induced antibody production in plasma at 1 mg/kg, po administered twice daily measured on day 4 by ELISA relative to control; type: functional; settings: 96 h
# Mus musculus [19] = experiment: In vivo inhibition of PI3Kdelta in Balb/c mouse assessed as reduction in trinitrophenylated aminoethylcarboxymethyl-Ficoll-induced antibody production in plasma at 0.5 mg/kg, po administered twice daily measured on day 4 by ELISA relative to control; type: functional; settings: 96 h
# [20] = Metabolic stability in CD-1 mouse liver microsomes at 0.2 uM up to 45 mins in presence of NADPH by LC-MS/MS analysis; type: ADME, microsome; settings: 0.75 h
# Sequence of PI3-kinase p110-delta/p85-alpha (P27986 whole entry): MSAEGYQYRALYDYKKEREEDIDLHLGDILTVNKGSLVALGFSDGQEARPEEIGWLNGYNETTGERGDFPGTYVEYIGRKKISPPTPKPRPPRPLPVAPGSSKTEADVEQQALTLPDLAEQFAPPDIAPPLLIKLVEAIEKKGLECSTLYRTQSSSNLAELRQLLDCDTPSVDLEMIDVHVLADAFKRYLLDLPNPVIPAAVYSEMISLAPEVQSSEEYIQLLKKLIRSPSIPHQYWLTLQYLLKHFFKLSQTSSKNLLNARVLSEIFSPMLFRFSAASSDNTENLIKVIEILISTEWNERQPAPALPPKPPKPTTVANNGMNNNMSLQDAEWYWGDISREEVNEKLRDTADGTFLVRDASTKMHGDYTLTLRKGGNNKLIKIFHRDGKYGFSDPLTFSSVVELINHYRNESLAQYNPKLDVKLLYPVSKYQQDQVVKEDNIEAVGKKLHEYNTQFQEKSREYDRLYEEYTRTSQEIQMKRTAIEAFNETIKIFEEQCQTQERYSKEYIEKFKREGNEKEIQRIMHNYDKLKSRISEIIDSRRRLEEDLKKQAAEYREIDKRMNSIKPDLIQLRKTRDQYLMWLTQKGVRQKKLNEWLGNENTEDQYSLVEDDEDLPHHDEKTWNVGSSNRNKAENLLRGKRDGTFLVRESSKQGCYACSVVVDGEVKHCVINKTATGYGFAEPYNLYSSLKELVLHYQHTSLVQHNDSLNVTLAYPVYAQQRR
# Sequence of PI3-kinase p110-delta/p85-alpha (O00329 whole entry): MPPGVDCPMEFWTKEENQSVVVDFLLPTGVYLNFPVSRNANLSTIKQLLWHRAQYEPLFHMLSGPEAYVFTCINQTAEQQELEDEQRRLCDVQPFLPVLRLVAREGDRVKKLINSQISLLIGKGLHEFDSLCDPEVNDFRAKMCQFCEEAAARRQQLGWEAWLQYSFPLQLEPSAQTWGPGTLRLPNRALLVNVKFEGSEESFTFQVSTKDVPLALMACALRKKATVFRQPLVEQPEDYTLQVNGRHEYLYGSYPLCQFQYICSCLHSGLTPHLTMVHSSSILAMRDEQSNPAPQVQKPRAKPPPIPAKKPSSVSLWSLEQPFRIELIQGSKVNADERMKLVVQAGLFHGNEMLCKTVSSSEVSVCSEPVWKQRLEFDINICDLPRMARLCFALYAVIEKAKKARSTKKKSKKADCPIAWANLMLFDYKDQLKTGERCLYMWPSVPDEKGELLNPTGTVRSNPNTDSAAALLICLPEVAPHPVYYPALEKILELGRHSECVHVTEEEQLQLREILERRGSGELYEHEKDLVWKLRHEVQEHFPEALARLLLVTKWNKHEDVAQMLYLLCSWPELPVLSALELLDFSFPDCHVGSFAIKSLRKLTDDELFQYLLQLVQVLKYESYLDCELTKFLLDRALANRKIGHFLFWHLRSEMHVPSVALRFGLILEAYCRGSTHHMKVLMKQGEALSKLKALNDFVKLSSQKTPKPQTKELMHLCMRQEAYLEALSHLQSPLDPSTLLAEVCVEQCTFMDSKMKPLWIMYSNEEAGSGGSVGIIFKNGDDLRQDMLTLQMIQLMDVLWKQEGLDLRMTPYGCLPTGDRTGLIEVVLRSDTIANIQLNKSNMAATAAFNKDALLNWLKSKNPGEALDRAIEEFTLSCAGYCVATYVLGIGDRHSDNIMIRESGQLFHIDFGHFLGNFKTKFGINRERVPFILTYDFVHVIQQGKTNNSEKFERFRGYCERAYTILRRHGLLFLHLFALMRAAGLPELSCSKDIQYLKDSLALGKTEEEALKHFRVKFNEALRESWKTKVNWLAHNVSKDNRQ
structure (smiles),measurement,setting,value
COc1ncc(-c2cc(OC[C@H]3CCCN(C(=O)C4CCOCC4)C3)c3cnn(C)c3n2)cc1NS(C)(=O)=O,IC50,[1],30 nM
same,Ratio IC50,Homo sapiens [2],6.6
COc1ncc(-c2cc(OC[C@@H]3CCCN(Cc4cn(C)nc4C)C3)c3cnn(C)c3n2)cc1NS(C)(=O)=O,IC50,[1],3.2 nM
same,Ratio IC50,Homo sapiens [2],730
same,CLint scaled at 0.2 µM,[3],> 1000 mL/min/kg
COc1ncc(-c2cc(OC[C@@H]3CCCN(C(=O)C4CCN(CCC(F)(F)F)CC4)C3)c3cnn(C)c3n2)cc1NS(C)(=O)=O,IC50,[1],41 nM
same,Ratio IC50,Homo sapiens [2],38
COc1ncc(-c2cc(OC[C@@H]3CCCN(C(=O)CC4CCOC4)C3)c3cnn(C)c3n2)cc1NS(C)(=O)=O (stereo partly specified),IC50,[1],4.8 nM
same,Ratio IC50,Homo sapiens [2],210
COc1ncc(-c2cc(OC[C@@H]3CCCN(CCC4CCOCC4)C3)c3cnn(C)c3n2)cc1NS(C)(=O)=O,"solubility at 20 h, 130 µM",[4],≥ 100 µM
same,IC50,[1],1.3 nM
same,Ratio IC50,Homo sapiens [2],430
same,Ratio IC50,Homo sapiens [5],660
same,Ratio IC50,Homo sapiens [6],3600
same,CLint scaled at 0.2 µM,[3],88 mL/min/kg
same,"Papp at 2 h, 50 µM",[7],22 ×10⁻⁶ cm/s
same,inhibition (INH),Cytochrome P450 1A2,Not Active
same,inhibition (INH),Cytochrome P450 2C8,Not Active
same,inhibition (INH),Cytochrome P450 2C9,Not Active
same,inhibition (INH),Cytochrome P450 2C19,Not Active
same,inhibition (INH),Cytochrome P450 2D6,Not Active
same,inhibition (INH),Cytochrome P450 3A4,Not Active
same,clearance,[8],25.5 mL/min/kg
same,Vd,[9],5.64 L/kg
same,half-life,[10],2.63 h
same,Cmax,[11],230 ng/mL
same,Tmax,[12],0.5 h
same,AUC(0-t),[13],1420 ng·h/mL
same,"fraction unbound at 6 h, 2 µM",[14],0.23
same,bioavailability,[15],73%
same,inhibition,Mus musculus [16],Dose-dependent effect
same,inhibition in vivo at 2 mg/kg,Mus musculus [17],83%
same,inhibition in vivo at 1 mg/kg,Mus musculus [18],68%
same,inhibition in vivo at 0.5 mg/kg,Mus musculus [19],56%
COc1ncc(-c2cc(OC[C@@H]3CCCN(CC4(C)COC4)C3)c3cnn(C)c3n2)cc1NS(C)(=O)=O,IC50,[1],1.8 nM
same,Ratio IC50,Homo sapiens [2],570
same,CLint scaled at 0.2 µM,[3],910 mL/min/kg
COc1ncc(-c2cc(O[C@H]3CC[C@H](NC(=O)C4CCOCC4)CC3)c3cnn(C)c3n2)cc1NS(C)(=O)=O,IC50,[1],150 nM
COc1ncc(-c2cc(O[C@@H]3CCN(Cc4c(C)nn(C)c4C)C3)c3cnn(C)c3n2)cc1NS(C)(=O)=O,CLint scaled at 0.2 µM,[3],620 mL/min/kg
same,inhibition in vivo at 2 mg/kg,Mus musculus [17],37%
COc1ncc(-c2cc(OC3CN(C(=O)C4CCOCC4)C3)c3cnn(C)c3n2)cc1NS(C)(=O)=O,IC50,[1],63 nM
same,Ratio IC50,Homo sapiens [2],3.7
COc1ncc(-c2cc(OC[C@@H]3CCCN(C(=O)C4CCOCC4)C3)c3cnn(C)c3n2)cc1NS(C)(=O)=O,IC50,[1],3.9 nM
same,Ratio IC50,Homo sapiens [2],39
same,Ratio IC50,Homo sapiens [5],1300
same,Ratio IC50,Homo sapiens [6],490
COc1ncc(-c2cc(OC[C@@H]3CCCN(Cc4c(C)nn(C)c4C)C3)c3cnn(C)c3n2)cc1NS(C)(=O)=O,IC50,[1],1.4 nM
same,Ratio IC50,Homo sapiens [2],780
same,CLint scaled at 0.2 µM,[3],> 1000 mL/min/kg
COc1ncc(-c2cc(OC[C@@H]3CCCN(CC4CCOCC4)C3)c3cnn(C)c3n2)cc1NS(C)(=O)=O,IC50,[1],0.79 nM
same,Ratio IC50,Homo sapiens [2],87
same,Ratio IC50,Homo sapiens [5],890
same,Ratio IC50,Homo sapiens [6],3200
same,CLint scaled at 0.2 µM,[3],340 mL/min/kg
COc1ncc(-c2cc(OC[C@@H]3CCCN(C(=O)c4cccnn4)C3)c3cnn(C)c3n2)cc1NS(C)(=O)=O,IC50,[1],7.3 nM
same,Ratio IC50,Homo sapiens [2],35
COc1ncc(-c2cc(OC[C@@H]3CCCN(C(=O)C4CCN(C(C)=O)CC4)C3)c3cnn(C)c3n2)cc1NS(C)(=O)=O,IC50,[1],4.6 nM
same,Ratio IC50,Homo sapiens [2],260
COc1ncc(-c2cc(O[C@@H]3CCN(C(=O)C4CCOCC4)C3)c3cnn(C)c3n2)cc1NS(C)(=O)=O,Stability,[20],Stable
same,inhibition in vivo at 2 mg/kg,Mus musculus [17],32%
same,inhibition in vivo at 1 mg/kg,Mus musculus [18],-2%
